# Test results: patent publication US7109354B2, “Thiophene amidines, compositions thereof, and methods of treating complement-mediated diseases and conditions” (3-Dimensional Pharmaceuticals, Inc., priority 2002, dated 2006)
# Counter-ions that a name gives are not always drawn.
# Target: T1, Activated human C1s (Homo sapiens, UniProt P09871)
# T1 construct: purchased Calbiochem (La Jolla, Calif.)
# T1 sequence (P09871 438-688 limits assumed): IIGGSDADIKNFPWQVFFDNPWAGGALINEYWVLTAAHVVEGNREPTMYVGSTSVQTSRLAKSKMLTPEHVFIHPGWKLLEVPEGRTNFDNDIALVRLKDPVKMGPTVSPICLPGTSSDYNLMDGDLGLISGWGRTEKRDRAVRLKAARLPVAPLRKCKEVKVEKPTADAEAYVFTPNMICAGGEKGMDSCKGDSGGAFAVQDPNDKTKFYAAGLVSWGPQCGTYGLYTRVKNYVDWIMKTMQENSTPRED
# T1 sequence (P09871 16-437 partner limits assumed): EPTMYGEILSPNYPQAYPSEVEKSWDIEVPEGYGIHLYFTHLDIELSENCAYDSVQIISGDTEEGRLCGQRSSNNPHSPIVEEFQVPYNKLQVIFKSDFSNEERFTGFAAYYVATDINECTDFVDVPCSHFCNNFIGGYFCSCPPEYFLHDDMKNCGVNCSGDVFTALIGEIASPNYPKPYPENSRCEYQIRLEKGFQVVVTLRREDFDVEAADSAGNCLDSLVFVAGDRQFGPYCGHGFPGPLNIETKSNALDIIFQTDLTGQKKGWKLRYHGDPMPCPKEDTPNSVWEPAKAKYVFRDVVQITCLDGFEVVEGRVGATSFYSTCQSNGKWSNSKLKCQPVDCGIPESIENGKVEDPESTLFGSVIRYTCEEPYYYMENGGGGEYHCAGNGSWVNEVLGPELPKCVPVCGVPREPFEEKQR
# Experiment: In vitro inhibition of C1s (Ki determination, C1s-catalyzed hydrolysis of Z-Gly-Arg-S-Bzl, DTNB readout)
# Format: biochemical
# Conditions: substrate Z-Gly-Arg-S-Bzl 45 μM, DTNB 200 μM, C1s 2.3 nM, pH 7.5, 37° C., absorbance at 405 nm
row,Compound,Ki [nM]
1,"CSc1sc(C(=N)N)cc1S(=O)(=O)c1cc(Br)c2c(c1)ncn2Cc1cc(F)ccc1F [Example 275, 4-[7-Bromo-1-(2,5-difluoro-benzyl)-1H-benzoimidazole-5-sulfonyl]-5-methylsulfanyl-thiophene-2-carboxamidine trifluoroacetate]",6 to 23
2,"CSc1sc(C(=N)N)cc1S(=O)(=O)c1cccc(-c2ccc(NC(N)=NCCCc3ccccc3)cc2C)c1 [Example 280, 4-{2′-Methyl-4′-[N′-(3-phenyl-propyl)-guanidino]-biphenyl-3-sulfonyl}-5-methylsulfanyl-thiophene-2-carboxamidine bistrifluoroacetate]",6 to 23
3,"CSc1sc(C(=N)N)cc1S(=O)(=O)c1cccc(-c2ccc(NC(=N)NCCC(C)C)cc2C)c1 [Example 282, 4-{2′-Methyl-4′-[N′-(3-methyl-butyl)-guanidino]-biphenyl-3-sulfonyl}-5-methylsulfanyl-thiophene-2-carboxamidine bistrifluoroacetate]",6 to 23
4,"CSc1sc(C(=N)N)cc1S(=O)(=O)c1cccc(-c2c(C)cc(NC(=O)NCCCS(C)(=O)=O)cc2NC(=O)NCCCS(C)(=O)=O)c1 [Example 294, 4-{4′,6′-Bis-[3-(3-methanesulfonyl-propyl)-uredo]-2′-methyl-biphenyl-3-sulfonyl}-5-methylsulfanyl-thiophene-2-carboxamidine trifluoroacetate]",6 to 23
5,"CSc1sc(C(=N)N)cc1S(=O)(=O)c1cccc(-c2c(C)cc(NC(=N)N)cc2NC(=O)CCCCCCCCCCC(=O)O)c1 [Example 295, 11-[3′-(5-Carbamimidoyl-2-methylsulfanyl-thiophene-3-sulfonyl)-4-guanidino-6-methyl-biphenyl-2-ylcarbamoyl]-undecanoic acid bis-trifluoroacetate]",6 to 23
6,"CSc1sc(C(=N)N)cc1S(=O)(=O)c1cccc(-c2ccc(NC(=O)NCCCS(C)(=O)=O)cc2C)c1 [Example 296, 4-{4′-[3-(3-Methanesulfonyl-propyl)-ureido]-2′-methyl-biphenyl-3-sulfonyl}-5-methylsulfanyl-thiophene-2-carboxamidine trifluoroacetate]",6 to 23
7,"CSc1sc(C(=N)N)cc1S(=O)(=O)c1cccc(-c2ccc(NC(=N)N)cc2C)c1 [Example 314, 4-(4′-Guanidino-2′-methyl-biphenyl-3-sulfonyl)-5-methylsulfanyl-thiophene-2-carboxamidine bis-trifluoroacetate]",6 to 23
8,"CO/N=C(\N)Nc1ccc(-c2cccc(S(=O)(=O)c3cc(C(=N)N)sc3SC)c2)c(C)c1 [Example 315, 4-[2′-Methyl-4′-(N′-methoxyl-guanidino)-biphenyl-3-sulfonyl]-5-methylsulfanyl-thiophene-2-carboxamidine bis-trifluoroacetate]",6 to 23
